We go through five compounds from patent US20210292265A1, “CHALCONES AND DERIVATIVES FOR USE IN MEDICAMENTS AND NUTRACEUTICALS” (HLXTH B.V., priority 2018, published 2021).

pIC50: −log10 of the molar value.

For assay [1], the system named is inflammasome induced IL-1β production. Put plainly: IL-1β secretion (ELISA) in LPS/ATP stimulated, PMA differentiated THP-1 cells. The assay is classed as cell-based. The note with it: for pIC50: Homo sapiens, LPS (2 ng/ml, 4h) plus ATP (5 mM, 5 min), 1 hour pre-treatment, read-out: IC50 of inhibition of IL-1β secretion. As for the experimental part:
(§1) Evaluation of the effect of test compounds on inflammasome induced IL-1β or IL-18 generation and mTOR or caspase-1 activity was performed using PMA-differentiated THP-1 cells stimulated with LPS (2 ng/ml, 4h (LPS (sigma, cat #L3012)) plus ATP (5 mM, 5 min. (Sigma, cat #A1852)). PMA-differentiated THP-1 cells untreated with LPS/ATP were used as control. PMA (phorbol 12-myristate 13-acetate) stimulation was done by adding 150 nM PMA to the cell culture for 24 hours. followed by 24 hours of incubation in culture medium and removal of non-adherent cells.
(§2) The supernatant was collected immediately after experimental procedures for measurement of IL-1β ELISA (R&D Systems, cat #DY201) or IL-18 ELISA (R&D Systems, cat #7620) levels.
(§3) PMA-differentiated THP-1 cells, 1.5×10^5 cells/well, 96-well format
(§4) 1. Pre-treatment for 1 hour with experimental compounds. 2. LPS stimulation (2 ng/mL) for 4h of all conditions except unstimulated (LPS/ATP unstimulated) cells 3. ATP (5 mM) stimulation for 5 minutes of all conditions except unstimulated (LPS/ATP unstimulated) cells 4. Material collection: Supernatant and cell lysates (snap frozen, stored at −80° C.)
In general terms: An ELISA detects its analyte on a solid surface through an enzyme-linked reagent.

For assay [2], the system named is inflammasome induced IL-18 production. The assay is described as follows: IL-18 secretion (ELISA) in LPS/ATP stimulated, PMA differentiated THP-1 cells. The note with it: dose dependent. The assay is classed as cell-based. The method, then:
as §1, §2, §3, §4

For a further assay, the target named is T1, mTOR (Homo sapiens, UniProt P42345).
T1 construct: PMA-differentiated THP-1 cells, 1.5×10^5 cells/well, 96-well format; endogenous in cells; host or cells: PMA-differentiated THP-1 cells
The assay is described as follows: mTOR activity by phospho p70 S6K (Thr389) ELISA in PMA differentiated THP-1 cells. The assay is classed as cell-based. The note with it: LPS/ATP stimulated and PMA differentiated THP-1 cells; read-out: IC50 of mTOR inhibition (phospho p70 S6K). The method, then:
as §1
(§5) The cell lysates were collected accordingly the manufacturer's instructions for analysis of phospho p70 S6K (Thr389) (eBioscience, cat #85-86052) levels by ELISA, to determine the mTOR activity or to determine caspase-1 (R&D Systems cat #AF6215) levels by Western blot. As secondary antibody for the Western blot a HRP-conjugated anti-IG antibody (R&D Systems cat #HAF017) was used and immunoreactive bands were visualized by the Enhanced Chemiluminescence method (Thermo Scientific, Rockford, Ill.). All assays were performed accordingly to the respective manufacturers instructions.
as §3
1. Pre-treatment for 1 hour with experimental compounds. 2. LPS stimulation (2 ng/mL) for 4h of all conditions except unstimulated (LPS/ATP unstimulated) cells 3. […]

Assay [3] relates to inflammasome induced caspase-1 production. Put plainly: Caspase-1 levels by Western blot in LPS/ATP stimulated, PMA differentiated THP-1 cells. The assay is classed as cell-based. The method, then: as §1, §5
1. Pre-treatment for 1 hour with experimental compounds. 2. […]
LPS/ATP stimulated, PMA differentiated THP-1 cells were incubated with a compound of formula I and caspase-I formation was analyzed and compared to a control without the compound.

The subject of the next assay is MCAO rats. The note with it: pretreatment once a day for 7 days, 2 h MCAO, 22 h reperfusion; cited from earlier work.
The test system of assay [4] is 1K/DOCA/salt-treated mice. The note with it: cited from earlier work.
Assay [5] deals with myocardial ischemia reperfusion injury (MI/RI) rats. The note with it: I/R rats, 2.5, 5 and 10 mg/kg, 30 min occlusion, 2 h reperfusion; cited from earlier work.

Regarding `O=C(/C=C/c1ccccc1O)c1ccc(O)cc1O` [2,2′,4′-trihydroxychalcone], the pIC50 in assay [1] was 5.21; on mTOR it was 4.01. In addition, the “effect on secretion of IL-18” value in assay [2] is “inhibits the secretion of IL-18”. The “effect on caspase-1 production” value in assay [3] is on record as “inhibits caspase-1 production”.
For `O=C(/C=C/c1ccc(O)cc1)c1ccc(O)cc1O` [Isoliquiritigenin], the negative-log IC50 (pIC50) in assay [1] is 4.92; on mTOR, 3.76. Also, the “cerebral infarct volume and edema” value in the assay on MCAO rats is recorded as “significantly reduced”.
Consider `CC(C)(O)c1coc(S(=O)(=O)NC(=O)Nc2c3c(cc4c2CCC4)CCC3)c1` [MCC950], for which the effect on hypertension entry in assay [4] is “reversed hypertension”.
For `CO[C@H]1C[C@@H]2CC[C@@H](C)[C@@](O)(O2)C(=O)C(=O)N2CCCC[C@H]2C(=O)O[C@H]([C@H](C)C[C@@H]2CC[C@@H](O)[C@H](OC)C2)CC(=O)[C@H](C)/C=C(\C)[C@@H](O)[C@@H](OC)C(=O)[C@H](C)C[C@H](C)/C=C/C=C/C=C/1C` [Rapamycin], the “effect on production of IL-1β” value in assay [1] (LPS/ATP stimulated, Rapamycin 25, 50 and 100 nM) is on record as “no effect”.
Take `Oc1ccc(/C=C/c2cc(O)cc(O)c2)cc1` [Resveratrol, resveratrol]: the pIC50 in assay [1] is 4.06. In assay [5], the “infarct volume and myocardial fibrosis” value was “significantly reduced”.

The pIC50 is the negative decadic logarithm of the IC50, by convention in mol/L.
